These results are taken from paper PMC5617480 (Oncotarget, 2017).

Where two headings read alike, the source gives them in different places.

One assay concerns the target T1, telomerase (Homo sapiens, UniProt O14746).
T1 construct: Each telomerase extract was prepared from BEL-; endogenous in cells; host or cells: BEL-7404 cell extract
The experiment in a line: TRAP assay (TRAP-silver staining assay). The format is biochemical. The conditions noted are these: BEL-7404 cells, 10 μM, 24 h. From the text: As mentioned above, G4s structures widely exist in telomeres, we therefore monitored the effect of chiral platinum(II) complexes on function and activity of telomerase. To address this, we first determined the effect of complexes 4–6 on the expression of some telomeric DNA-associated proteins. […] We next evaluated the activity of telomerase by TRAP assay.
Apoptosis analysis c-myc antibody, or anti-β-actin primary antibody and the Apoptosis was detected by flow cytometric analysis corresponding secondary antibody were used to detect of annexin V staining. Annexin V-FITC vs PI assay was target protein via standard washing and incubating steps. performed as previously described. Briefly, adherent Senescence induction and selective binding to NEL-7404 cells were harvested and suspended in the G4s by 4–6 in BEL-7404 cells annexin-binding buffer (5×10^5 cells/mL). Then, cells were incubated with annexin V-FITC and PI for 1.0 h at Staining for SA-β-Gal activity was carried out room temperature in the dark and immediately analyzed according to Moore and Chen reports. In brief, by flow cytometry. The data are presented as biparametric After the long-term incubation with complexes 4–6, the dot plots showing PI red fluorescence vs annexin V-FITC growth medium was aspirated and the BEL-7404 cells green fluorescence. were fixed in 2% formaldehyde/0.2% glutaraldehyde for 15.0 min at room temperature. […] Finally, the extraction, RT-PCR, and the selective binding to G4s by BEL-7404 cell cycle was determined with FACS Calibur complexes 4–6 was according to the our previous reported flow cytometer (BD) and analyzed using Cell Quest.
(BDIS) and ModFit LT (Verity Software House, Topsham, ME). Gene expression by a panel of genes for RT-Determination of caspase-3/9 activity by flow qPCR array cytometric analysis Differential expression of telomeres/telomerase-related genes was analyzed using the Telomeres & […]

The next assay deals with Pu22. The experiment in a line: FID assay. The assay is classed as binding. The conditions noted are these: for Pu22DC50: FID; for ctDNADC50/Pu22DC50: FID selectivity ratio.
Assay [1] concerns HTG21 (human telomeric) G4. The experiment in a line: FID assay. The assay is classed as binding. Conditions: for HTG21DC50: FID; for ctDNADC50/HTG21DC50: FID selectivity ratio. As to the method: (§1) We asked whether chiral platinum(II) complexes 4–6 have the ability to bind to G-quadruplex DNA. To address this, FRET assays, CD spectroscopy, G4-FID assays, and fluorescence titration analysis were performed. […] For G4-HTG21, the ^G4DC50 values of complexes 4–6 were 1.23, 1.26 and 0.99 μM, respectively; while, for G4-Pu27, the ^G4DC50 values were 1.01, 0.89, and 0.82 μM, respectively. In addition, the ^ctDNADC50/^G4DC50 ratio of the HTG21 and Pu27 G4s treated with complexes 4–6 was in the range of 50.54-90.65 and 71.56-110.67 folds, respectively. To further evaluate the binding ability of complexes 4–6 to Pu27 and HTG21G4s, CD spectroscopy and fluorescence titration analysis were performed. […] The quenching ability of complexes 4–6 to HTG21 and Pu27 G4 DNA fluorescence can be quantitatively estimated by their respective quenching constant (Kq), which was derived from the Stern-Volmer quenching equation. […] Finally, the selective binding of complexes 4–6 towards G4 DNA was analyzed by FRET-melting assays. […] In contrast, the ΔTm value for the F32T+H20M duplex DNA in the presence of complexes 4–6 was 1.18, 1.34, and 0.78 °C under the same conditions (Figure 4A). Altogether, our data indicated complexes 4–6, especially complex 6, is the best binder to G4 DNA, which caused DNA complex displaying the highest thermodynamic stability. […]
(§2) Supplementary Figure 20: FID results onto 4 (A), 5 (B) and 6 (C) toward DNA in sodium cacodylate buffer solution. […]

Assay [2] relates to ctDNA. Briefly: FID assay. The conditions noted are these: for ctDNADC50: FID; for ctDNADC50/ctDNADC50: FID selectivity ratio. The assay is classed as binding. As to the method:
as §1, §2

A further assay deals with Pu27 (c-myc) G4. The experiment in a line: FID assay. The assay is classed as binding. The conditions noted are these: for Pu27DC50: FID; for ctDNADC50/Pu27DC50: FID selectivity ratio. As to the method: as §1, §2
Assay [3] deals with ctDNA. Set-up: method as in earlier work. The conditions noted are these: ref [1], cited from earlier work; for ctDNADC50/ctDNADC50: FID selectivity ratio; for ctDNADC50: FID.
Another assay has as its system A549 cells. Also on record: method as in earlier work. Conditions: A549, 48 h; ref [1]; cited from earlier work.
The subject of assay [4] is Pu27 (DNA, G4) TGGGGAGGGTGGGGAGGGTGGGGAAGG
The experiment in a line: fluorescent intercalator displacement (FID). The conditions noted are these: thiazole orange displaced.

Assay [5] relates to HTG21 (human telomeric) G4. Set-up: method as in earlier work. The conditions noted are these: ref [1], cited from earlier work; for ctDNADC50/HTG21DC50: FID selectivity ratio; for HTG21DC50: FID.

T1 sequence (O14746 whole entry): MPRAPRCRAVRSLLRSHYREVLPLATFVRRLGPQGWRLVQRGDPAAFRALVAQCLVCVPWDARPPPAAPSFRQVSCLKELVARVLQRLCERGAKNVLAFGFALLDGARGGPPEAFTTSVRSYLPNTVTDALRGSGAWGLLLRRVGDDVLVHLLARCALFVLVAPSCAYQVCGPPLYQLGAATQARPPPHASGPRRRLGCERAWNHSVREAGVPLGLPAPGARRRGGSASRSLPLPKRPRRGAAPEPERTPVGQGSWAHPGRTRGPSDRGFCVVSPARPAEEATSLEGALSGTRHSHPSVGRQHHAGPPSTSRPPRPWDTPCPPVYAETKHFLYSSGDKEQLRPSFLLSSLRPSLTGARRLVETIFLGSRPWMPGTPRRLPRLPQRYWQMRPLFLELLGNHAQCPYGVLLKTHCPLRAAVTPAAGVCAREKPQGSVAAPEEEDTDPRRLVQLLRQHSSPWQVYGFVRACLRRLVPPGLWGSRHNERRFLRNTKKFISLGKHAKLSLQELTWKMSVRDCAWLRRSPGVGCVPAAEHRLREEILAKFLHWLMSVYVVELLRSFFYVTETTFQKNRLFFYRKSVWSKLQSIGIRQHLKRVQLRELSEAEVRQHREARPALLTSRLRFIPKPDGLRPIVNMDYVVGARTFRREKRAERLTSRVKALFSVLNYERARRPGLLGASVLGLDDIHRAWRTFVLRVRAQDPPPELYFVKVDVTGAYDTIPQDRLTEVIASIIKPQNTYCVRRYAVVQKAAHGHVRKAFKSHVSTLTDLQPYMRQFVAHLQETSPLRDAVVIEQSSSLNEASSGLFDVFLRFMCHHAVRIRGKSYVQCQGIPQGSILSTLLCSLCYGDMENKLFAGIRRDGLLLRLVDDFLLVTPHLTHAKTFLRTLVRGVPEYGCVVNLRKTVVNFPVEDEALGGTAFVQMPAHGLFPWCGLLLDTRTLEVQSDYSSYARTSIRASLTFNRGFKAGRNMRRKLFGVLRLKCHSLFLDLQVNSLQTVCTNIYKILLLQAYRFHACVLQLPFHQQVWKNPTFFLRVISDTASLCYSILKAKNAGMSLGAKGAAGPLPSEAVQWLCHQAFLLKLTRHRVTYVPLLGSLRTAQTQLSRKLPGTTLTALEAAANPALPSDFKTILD
T1 sequence (O60832 whole entry partner): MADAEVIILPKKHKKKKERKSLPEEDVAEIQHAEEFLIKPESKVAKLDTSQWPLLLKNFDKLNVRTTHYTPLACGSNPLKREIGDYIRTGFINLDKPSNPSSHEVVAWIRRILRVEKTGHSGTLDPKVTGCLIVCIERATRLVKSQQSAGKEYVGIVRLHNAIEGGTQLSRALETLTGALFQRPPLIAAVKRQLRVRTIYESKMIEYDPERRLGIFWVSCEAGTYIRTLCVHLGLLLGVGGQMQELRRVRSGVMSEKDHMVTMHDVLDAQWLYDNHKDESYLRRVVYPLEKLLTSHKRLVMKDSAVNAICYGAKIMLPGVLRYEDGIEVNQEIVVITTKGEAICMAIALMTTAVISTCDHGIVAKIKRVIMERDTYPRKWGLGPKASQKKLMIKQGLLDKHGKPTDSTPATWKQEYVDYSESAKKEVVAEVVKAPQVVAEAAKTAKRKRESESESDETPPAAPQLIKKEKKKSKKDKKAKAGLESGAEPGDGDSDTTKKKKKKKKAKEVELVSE
T1 sequence (Q9NPE3 whole entry partner): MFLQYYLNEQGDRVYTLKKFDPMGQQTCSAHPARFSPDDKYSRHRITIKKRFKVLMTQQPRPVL
T1 sequence (Q9NX24 whole entry partner): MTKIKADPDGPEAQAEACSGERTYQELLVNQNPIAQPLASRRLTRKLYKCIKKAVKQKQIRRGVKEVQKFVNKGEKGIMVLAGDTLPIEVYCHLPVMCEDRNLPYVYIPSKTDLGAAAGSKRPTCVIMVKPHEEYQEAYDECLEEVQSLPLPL
T1 sequence (Q9NY12 whole entry partner): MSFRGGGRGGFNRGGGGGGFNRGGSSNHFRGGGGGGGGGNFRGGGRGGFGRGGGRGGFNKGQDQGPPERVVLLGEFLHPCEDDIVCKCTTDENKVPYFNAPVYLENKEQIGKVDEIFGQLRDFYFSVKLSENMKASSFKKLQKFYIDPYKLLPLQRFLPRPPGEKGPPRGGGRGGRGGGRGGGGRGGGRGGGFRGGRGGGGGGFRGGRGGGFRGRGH
T1 sequence (Q9BUR4 whole entry partner): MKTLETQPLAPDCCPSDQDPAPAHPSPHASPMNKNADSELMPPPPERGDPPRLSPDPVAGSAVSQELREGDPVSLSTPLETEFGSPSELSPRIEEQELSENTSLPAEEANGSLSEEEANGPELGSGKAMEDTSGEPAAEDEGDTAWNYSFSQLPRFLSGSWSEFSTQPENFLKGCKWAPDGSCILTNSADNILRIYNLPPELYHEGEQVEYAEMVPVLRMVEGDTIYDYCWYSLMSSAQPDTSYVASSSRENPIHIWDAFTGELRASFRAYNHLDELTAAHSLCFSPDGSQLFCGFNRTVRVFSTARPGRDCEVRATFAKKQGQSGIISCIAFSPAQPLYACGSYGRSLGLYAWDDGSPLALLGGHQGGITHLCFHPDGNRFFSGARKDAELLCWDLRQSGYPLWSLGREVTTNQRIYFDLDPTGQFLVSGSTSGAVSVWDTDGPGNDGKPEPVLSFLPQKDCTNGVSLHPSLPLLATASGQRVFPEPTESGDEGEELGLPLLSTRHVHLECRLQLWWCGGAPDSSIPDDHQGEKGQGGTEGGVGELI

As for cis-[PtCl2(S-(–)-FOA)] [complex 6], the “inhibitory ratio of telomerase activity” value at telomerase came out at 67.82%. For the same molecule, in the assay on Pu22, the Pu22DC50 amounted to 1.14 µM and the ctDNADC50/Pu22DC50 was 79.59. Further, the HTG21DC50 in assay [1] came to 0.99 µM. Besides, in the assay on ctDNA [2], the ctDNADC50 came out at 90.73 µM and the ctDNADC50/ctDNADC50 was 1.00. In addition, in the assay on Pu27 (c-myc) G4, the Pu27DC50 was 0.82 µM and the ctDNADC50/Pu27DC50 is 110.67.

In the case of `O=C(NC[C@@H](O)CO)c1cnc2c3c(cccc13)-c1ccccc1C2=O.[Cl-].[Cl-].[Pt+2]` [ligand 2, R-(+)-FOA], in the assay with ctDNA [3], the ctDNADC50/ctDNADC50 is 1.00 and the ctDNADC50 is 39.98 µM. Further, the IC50 (usually the midpoint of a concentration-inhibition curve) with A549 cells is 24.1 ± 0.4 µM. The G4DC50 in assay [4] is 0.89 µM. Moreover, in [5], the ctDNADC50/HTG21DC50 is listed as 17.78 and the HTG21DC50 is 2.25 µM.

In the case of `O=C(NCC(O)CO)c1cnc2c3c(cccc13)-c1ccccc1C2=O.[Cl-].[Cl-].[Pt+2]` (racemic) [ligand 1, R/S-(±)-FOA], in the assay with ctDNA [3], the ctDNADC50/ctDNADC50 is 1.00 and the ctDNADC50 is 63.96 µM. The IC50 with A549 cells was 20.2 ± 0.5 µM. Also, in [4], the G4DC50 worked out at 1.01 µM. Besides, in [5], the ctDNADC50/HTG21DC50 is 25.79 and the HTG21DC50 is 2.48 µM.

For the molecule `O=C(NC[C@H](O)CO)c1cnc2c3c(cccc13)-c1ccccc1C2=O.[Cl-].[Cl-].[Pt+2]` [ligand 3, S-(–)-FOA], in the assay on ctDNA [3], the ctDNADC50/ctDNADC50 is reported as 1.00 and the ctDNADC50 is 89.82 µM. Moreover, in the assay with A549 cells, the IC50 was 20.4 ± 0.3 µM. In assay [4], the G4DC50 was 0.82 µM. Moreover, in [5], the ctDNADC50/HTG21DC50 was 48.55 and the HTG21DC50 was 1.85 µM.

Turning to cis-[PtCl2(R/S-(±)-FOA)] [complex 4], the “inhibitory ratio of telomerase activity” value on telomerase was 63.03%. Also, in the assay on Pu22, the Pu22DC50 amounted to 7.41 µM and the ctDNADC50/Pu22DC50 was 10.24. Further, in assay [1], the HTG21DC50 was determined as 1.23 µM and the ctDNADC50/HTG21DC50 turned out to be 61.68. Besides, in the assay with ctDNA [2], the ctDNADC50 was found to be 75.87 µM and the ctDNADC50/ctDNADC50 worked out at 1.00. In addition, in the assay on Pu27 (c-myc) G4, the Pu27DC50 came to 1.01 µM and the ctDNADC50/Pu27DC50 is given as 75.11.

On to cis-[PtCl2(R-(+)-FOA)] [complex 5], for which the “inhibitory ratio of telomerase activity” value at telomerase came to 23.35%. Also, in the assay with Pu22, the Pu22DC50 was determined as 1.74 µM and the ctDNADC50/Pu22DC50 turned out to be 36.60. Besides, in assay [1], the HTG21DC50 was 1.26 µM and the ctDNADC50/HTG21DC50 is listed as 50.54. In addition, in the assay on ctDNA [2], the ctDNADC50 is 63.69 µM and the ctDNADC50/ctDNADC50 came to 1.00. Further, in the assay with Pu27 (c-myc) G4, the Pu27DC50 is 0.89 µM and the ctDNADC50/Pu27DC50 was determined as 71.56.
